Results: PubChem BioAssay (NCI)
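48-hour exposure; five concentrations; linearly interpolated endpoints. Definition used: TGI = concentration required for complete inhibition of growth.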

Key:
Assay in all cases: NCI tumour cell line growth inhibition, 48 h
OVCAR-4 ovarian = system: OVCAR-4 ovarian
MALME-3M melanoma = system: MALME-3M melanoma
KM12 colon = system: KM12 colon
SNB-19 CNS = system: SNB-19 CNS
CAKI-1 renal = system: CAKI-1 renal
SK-MEL-2 melanoma = system: SK-MEL-2 melanoma
LOX IMVI melanoma = system: LOX IMVI melanoma
SK-MEL-5 melanoma = system: SK-MEL-5 melanoma
SF-295 CNS = system: SF-295 CNS
MOLT-4 leukemia = system: MOLT-4 leukemia
HCC-2998 colon = system: HCC-2998 colon
SN12C renal = system: SN12C renal
PC-3 prostate = system: PC-3 prostate
A549 NSCLC = system: A549 NSCLC
U251 CNS = system: U251 CNS
RXF 393 renal = system: RXF 393 renal
A498 renal = system: A498 renal
T-47D breast = system: T-47D breast
EKVX NSCLC = system: EKVX NSCLC
NCI/ADR-RES ovarian = system: NCI/ADR-RES ovarian
NCI-H226 lung = system: NCI-H226 lung
TK-10 renal = system: TK-10 renal
HL-60(TB) leukemia = system: HL-60(TB) leukemia
CCRF-CEM leukemia = system: CCRF-CEM leukemia
K-562 leukemia = system: K-562 leukemia
HCT-116 colon = system: HCT-116 colon
NCI-H522 lung = system: NCI-H522 lung
SR leukemia = system: SR leukemia
BT-549 breast = system: BT-549 breast
SF-268 CNS = system: SF-268 CNS
HCT-15 colon = system: HCT-15 colon
DU-145 prostate = system: DU-145 prostate
OVCAR-5 ovarian = system: OVCAR-5 ovarian
MCF7 breast = system: MCF7 breast
NCI-H460 lung = system: NCI-H460 lung
SK-MEL-28 melanoma = system: SK-MEL-28 melanoma
ACHN renal = system: ACHN renal
UACC-257 melanoma = system: UACC-257 melanoma
OVCAR-3 ovarian = system: OVCAR-3 ovarian
HT29 colon = system: HT29 colon
COLO 205 colon = system: COLO 205 colon
OVCAR-8 ovarian = system: OVCAR-8 ovarian
SK-OV-3 ovarian = system: SK-OV-3 ovarian
RPMI-8226 leukemia = system: RPMI-8226 leukemia
786-0 renal = system: 786-0 renal
MDA-MB-231 breast = system: MDA-MB-231 breast
SF-539 CNS = system: SF-539 CNS
SW-620 colon = system: SW-620 colon
IGROV1 ovarian = system: IGROV1 ovarian
UACC-62 melanoma = system: UACC-62 melanoma
UO-31 renal = system: UO-31 renal
MDA-N = system: MDA-N
M14 melanoma = system: M14 melanoma
MDA-MB-435 = system: MDA-MB-435
NCI-H23 lung = system: NCI-H23 lung
HOP-62 NSCLC = system: HOP-62 NSCLC
HOP-92 NSCLC = system: HOP-92 NSCLC
SNB-75 CNS = system: SNB-75 CNS

COc1ccc(-c2nc3cc(F)ccc3s2)cc1O
TGI (OVCAR-4 ovarian): > 100 µM
TGI (MALME-3M melanoma): > 100 µM
TGI (KM12 colon): > 100 µM
TGI (SNB-19 CNS): > 100 µM
TGI (CAKI-1 renal): 64 µM
TGI (SK-MEL-2 melanoma): 78 µM
TGI (LOX IMVI melanoma): 79.3 µM
TGI (SK-MEL-5 melanoma): 59 µM
TGI (SF-295 CNS): 49 µM
TGI (MOLT-4 leukemia): > 100 µM
TGI (HCC-2998 colon): 12.7 µM
TGI (SN12C renal): > 100 µM
TGI (PC-3 prostate): > 100 µM
TGI (A549 NSCLC): > 100 µM
TGI (U251 CNS): > 100 µM
TGI (RXF 393 renal): > 100 µM
TGI (A498 renal): 66.3 µM
TGI (T-47D breast): 46.9 µM
TGI (EKVX NSCLC): 60.8 µM
TGI (NCI/ADR-RES ovarian): > 100 µM
TGI (NCI-H226 lung): > 100 µM
TGI (TK-10 renal): 70 µM
TGI (HL-60(TB) leukemia): 66.1 µM
TGI (CCRF-CEM leukemia): > 100 µM
TGI (K-562 leukemia): > 100 µM
TGI (HCT-116 colon): > 100 µM
TGI (NCI-H522 lung): 42.1 µM
TGI (SR leukemia): 47.7 µM
TGI (BT-549 breast): 54.1 µM
TGI (SF-268 CNS): > 100 µM
TGI (HCT-15 colon): > 100 µM
TGI (DU-145 prostate): > 100 µM
TGI (OVCAR-5 ovarian): > 100 µM
TGI (MCF7 breast): > 100 µM
TGI (NCI-H460 lung): > 100 µM
TGI (SK-MEL-28 melanoma): > 100 µM
TGI (ACHN renal): > 100 µM
TGI (UACC-257 melanoma): 61.8 µM
TGI (OVCAR-3 ovarian): > 100 µM
TGI (HT29 colon): > 100 µM
TGI (COLO 205 colon): 94.4 µM
TGI (OVCAR-8 ovarian): > 100 µM
TGI (SK-OV-3 ovarian): > 100 µM
TGI (RPMI-8226 leukemia): 77.1 µM
TGI (786-0 renal): 55.1 µM
TGI (MDA-MB-231 breast): > 100 µM
TGI (SF-539 CNS): > 100 µM
TGI (SW-620 colon): > 100 µM
TGI (IGROV1 ovarian): 81.3 µM
TGI (UACC-62 melanoma): > 100 µM
TGI (UO-31 renal): > 100 µM
TGI (MDA-N): > 100 µM
TGI (M14 melanoma): > 100 µM
TGI (MDA-MB-435): > 100 µM
TGI (NCI-H23 lung): > 100 µM

O=c1[nH]cnc2c1cnn2Cc1cn(COCC(O)CO)nn1 (configuration not stated)
TGI (OVCAR-4 ovarian): > 100 µM
TGI (HOP-62 NSCLC): > 100 µM
TGI (KM12 colon): > 100 µM
TGI (SNB-19 CNS): > 100 µM
TGI (CAKI-1 renal): > 100 µM
TGI (SK-MEL-2 melanoma): > 100 µM
TGI (LOX IMVI melanoma): > 100 µM
TGI (SK-MEL-5 melanoma): > 100 µM
TGI (SF-295 CNS): > 100 µM
TGI (MOLT-4 leukemia): > 100 µM
TGI (HCC-2998 colon): > 100 µM
TGI (SN12C renal): > 100 µM
TGI (PC-3 prostate): > 100 µM
TGI (A549 NSCLC): > 100 µM
TGI (U251 CNS): > 100 µM
TGI (A498 renal): > 100 µM
TGI (T-47D breast): > 100 µM
TGI (EKVX NSCLC): > 100 µM
TGI (NCI/ADR-RES ovarian): > 100 µM
TGI (NCI-H226 lung): > 100 µM
TGI (TK-10 renal): > 100 µM
TGI (HL-60(TB) leukemia): > 100 µM
TGI (CCRF-CEM leukemia): > 100 µM
TGI (K-562 leukemia): > 100 µM
TGI (HCT-116 colon): > 100 µM
TGI (NCI-H522 lung): 62.7 µM
TGI (SR leukemia): > 100 µM
TGI (BT-549 breast): > 100 µM
TGI (HCT-15 colon): > 100 µM
TGI (DU-145 prostate): > 100 µM
TGI (OVCAR-5 ovarian): > 100 µM
TGI (MCF7 breast): > 100 µM
TGI (SK-MEL-28 melanoma): > 100 µM
TGI (ACHN renal): > 100 µM
TGI (UACC-257 melanoma): > 100 µM
TGI (OVCAR-3 ovarian): > 100 µM
TGI (HT29 colon): > 100 µM
TGI (COLO 205 colon): > 100 µM
TGI (OVCAR-8 ovarian): > 100 µM
TGI (SK-OV-3 ovarian): > 100 µM
TGI (HOP-92 NSCLC): > 100 µM
TGI (RPMI-8226 leukemia): > 100 µM
TGI (786-0 renal): > 100 µM
TGI (MDA-MB-231 breast): > 100 µM
TGI (SF-539 CNS): > 100 µM
TGI (SW-620 colon): > 100 µM
TGI (IGROV1 ovarian): > 100 µM
TGI (UACC-62 melanoma): > 100 µM
TGI (UO-31 renal): > 100 µM
TGI (MDA-N): > 100 µM
TGI (M14 melanoma): > 100 µM
TGI (MDA-MB-435): > 100 µM
TGI (NCI-H23 lung): > 100 µM

NCc1ccc(O)c(O)c1
TGI (OVCAR-4 ovarian): > 100 µM
TGI (HOP-62 NSCLC): > 100 µM
TGI (KM12 colon): > 100 µM
TGI (SNB-19 CNS): > 100 µM
TGI (CAKI-1 renal): > 100 µM
TGI (SK-MEL-2 melanoma): > 100 µM
TGI (LOX IMVI melanoma): > 100 µM
TGI (SK-MEL-5 melanoma): > 100 µM
TGI (SF-295 CNS): > 100 µM
TGI (MOLT-4 leukemia): > 100 µM
TGI (HCC-2998 colon): > 100 µM
TGI (SN12C renal): > 100 µM
TGI (PC-3 prostate): > 100 µM
TGI (A549 NSCLC): > 100 µM
TGI (U251 CNS): > 100 µM
TGI (RXF 393 renal): > 100 µM
TGI (A498 renal): > 100 µM
TGI (T-47D breast): > 100 µM
TGI (EKVX NSCLC): > 100 µM
TGI (NCI/ADR-RES ovarian): > 100 µM
TGI (NCI-H226 lung): > 100 µM
TGI (SNB-75 CNS): > 100 µM
TGI (HL-60(TB) leukemia): 41 µM
TGI (CCRF-CEM leukemia): > 100 µM
TGI (K-562 leukemia): > 100 µM
TGI (HCT-116 colon): > 100 µM
TGI (SR leukemia): > 100 µM
TGI (BT-549 breast): > 100 µM
TGI (HCT-15 colon): > 100 µM
TGI (DU-145 prostate): > 100 µM
TGI (OVCAR-5 ovarian): > 100 µM
TGI (MCF7 breast): > 100 µM
TGI (NCI-H460 lung): > 100 µM
TGI (SK-MEL-28 melanoma): > 100 µM
TGI (ACHN renal): > 100 µM
TGI (UACC-257 melanoma): > 100 µM
TGI (OVCAR-3 ovarian): > 100 µM
TGI (HT29 colon): > 100 µM
TGI (COLO 205 colon): > 100 µM
TGI (OVCAR-8 ovarian): > 100 µM
TGI (SK-OV-3 ovarian): > 100 µM
TGI (HOP-92 NSCLC): > 100 µM
TGI (RPMI-8226 leukemia): > 100 µM
TGI (786-0 renal): > 100 µM
TGI (MDA-MB-231 breast): > 100 µM
TGI (SF-539 CNS): > 100 µM
TGI (SW-620 colon): > 100 µM
TGI (IGROV1 ovarian): > 100 µM
TGI (UACC-62 melanoma): > 100 µM
TGI (UO-31 renal): > 100 µM
TGI (MDA-N): > 100 µM
TGI (M14 melanoma): > 100 µM
TGI (MDA-MB-435): > 100 µM
TGI (NCI-H23 lung): > 100 µM
